Measurements taken from US6350767B1, “Compounds with growth hormone releasing properties” (Novo Nordisk A/S, priority 1995, dated 2002).
Counter-ions that a name gives are not always drawn.

Experiments:
carboxypeptidase Y and B = test: Metabolic stability in carboxypeptidase mix (ESMS, SIM of the molecular ion); format: in vitro ADME; conditions: stability after 24 h at 37° C. in carboxypeptidase Y and B, 50 mM ammoniumacetate pH 4.5; enzyme:substrate approx. 1:5 (w/w)
Description: (§1) Compounds of formula I may be evaluated for their metabolic stability.
(§2) Compounds were dissolved at a concentration of 1 μg/μl in water. 25 μl of this solution is added to 175 μl of the respective enzyme-solution (resulting in an enzyme:substrate ratio (w/w) of approximately 1:5). The solution is left at 37° C. overnight. 10 μl of the various degradation solutions is analyzed against a corresponding zero-sample using flow injection electrospray mass spectrometry (ESMS) with selected ion monitoring of the molecular ion. If the signal has decreased more than 20% compared to the zero-sample, the remainder of the solution is analyzed by HPLC and mass spectrometry in order to identify the extent and site(s) of degradation precisely.
(§3) Several standard peptides (ACTH 4-10, Angiotensin 1-14 and Glucagon) have been included in the stability tests in order to verify the ability of the various solutions to degrade peptides.
(§4) Enzymes (trypsin, chymotrypsin, elastase aminopeptidase M and carboxypeptidase Y and B) were all purchased from Boehringer Mannheim GmbH (Mannheim, Germany)
Carboxypeptidase mix: carboxypeptidase Y and B in 50 mM ammoniumacetate pH 4.5 (all concentrations 0.025 μg/μl).
(§5) Quantification of the compounds (before and after degradation) was done on the API III instrument using single ion monitoring of the molecular ion in question with flow injection of the analyte. […]

[1] = system: trypsin, chymotrypsin and elastase; test: Metabolic stability in pancreatic enzyme mix (ESMS, SIM of the molecular ion); format: in vitro ADME; conditions: stability after 24 h at 37° C. in trypsin, 100 mM ammoniumbicarbonate pH 8.0, enzyme:substrate approx. 1:5 (w/w)
Description: as §1, §2, §3, §4
Pancreatic enzyme mix: trypsin, chymotrypsin and elastase in 100 mM ammoniumbicarbonate pH 8.0 (all concentrations 0.025 μg/μl).
as §5

Compound | Carboxy-peptidase mix (carboxypeptidase Y and B) | Pan. enzyme mix [1] | melting point [°C]
Glucagon | − (Unstable (more than 20% decrease in SIM signal after 24 h in degradation solution)) | − (Unstable (more than 20% decrease in SIM signal after 24 h in degradation solution)) | –
Cc1noc([C@@H](Cc2ccccc2)NC(=O)[C@@H](Cc2ccc3ccccc3c2)NC(=O)[C@@H]2CCCNC2)n1 (stereo in doubt) (as salt: salt) | – | – | 198 to 200
Cc1noc([C@@H](Cc2ccccc2)NC(=O)[C@@H](Cc2ccc3ccccc3c2)NC(=O)C2CCNCC2)n1 (stereo in doubt) (as salt: salt) | – | – | 238 to 241
Cc1noc([C@@H](Cc2ccccc2)NC(=O)C(Cc2ccc3ccccc3c2)NC(=O)/C=C/C(C)(C)N)n1 (stereo in doubt) (as salt: salt) | – | – | 161 to 167
Cc1noc([C@@H](Cc2ccccc2)NC(=O)[C@@H](Cc2ccc3ccccc3c2)NC(=O)c2cccc(CN)c2)n1 (as salt: salt) | – | – | 240 to 241
